Assay: Stability studies (stress testing, accelerated test for 10 days) on crystal forms and free base
Assay type: physicochemical
Protocol: Detection conditions: Chromatographic column: Waters C18; Mobile phase A: acetonitrile-mobile phase B (70:30); Mobile phase B: 0.05 mol/l ammonium dihydrogen phosphate solution (pH=7.3); Column temperature: 30° C.; Detection wavelength: 247 nm.
Detection method: High performance liquid chromatography method, Pharmacopoeia of the People's Republic of China, Part II Appendix VD

[1] = Day 10, relative humidity 92.5%
[2] = Day 10, stress condition not given

CCOc1cc2ncnc(Nc3ccc(F)c(Cl)c3)c2cc1NC(=O)/C=C/CN(C)C [Free base, (E)-N-(4-((3-chloro-4-fluorophenyl)amino)-7-ethoxyquinazolin-6-yl)-4-(dimethylamino)but-2-enamide, reference compound]
Content (%) (40° C., Day 5): 98.96% | Content (%) (40° C., Day 10): 98.59% | Content (%) (60° C., Day 5): 96.77% | Content (%) (60° C., Day 10): 95.15% | Content (%) (Day 0): 99.37% | Maximum single impurity (%) (Day 0): 0.45 (RRT: 1.11) % | Maximum single impurity (%) (Day 5, 40° C.): 0.46 (RRT: 1.11) % | Maximum single impurity (%) (Day 5, 60° C.): 2.14 (RRT: 0.44) % | Maximum single impurity (%) (Day 10, 40° C.): 0.71 (RRT: 0.43) % | Maximum single impurity (%) (Day 10, 60° C.): 2.88 (RRT: 0.43) % | Stability (result in words) (under the condition of 60° C.): obviously degraded

CCOc1cc2ncnc(Nc3ccc(F)c(Cl)c3)c2cc1NC(=O)/C=C/CN(C)C.Cc1ccc(S(=O)(=O)O)cc1 [crystal form α, (E)-N-(4-((3-chloro-4-fluorophenyl)amino)-7-ethoxyquinazolin-yl)-4-(dimethylamino)but-2-enamide (Neptinib) di-p-methylbenzene sulfonate 1.5 hydrate]
Maximum single impurity (%) (Day 0): 0.021 (RRT: 1.22) % | Purity (%) (Day 0): 99.98% | Total impurities (%) (Day 0): 0.02% | Water (%) (Day 0): 3.3% | Maximum single impurity (%) (Day 5, 40° C.): 0.022 (RRT: 1.22) % | Purity (%) (Day 5, 40° C.): 99.98% | Total impurities (%) (Day 5, 40° C.): 0.02% | Water (%) (Day 5, 40° C.): 3.3% | Maximum single impurity (%) (Day 5, 60° C.): 0.022 (RRT: 1.22) % | Purity (%) (Day 5, 60° C.): 99.96% | Total impurities (%) (Day 5, 60° C.): 0.04% | Water (%) (Day 5, 60° C.): 3.3% | Maximum single impurity (%) (Day 5, light irradiation): 0.051 (RRT: 0.93) % | Purity (%) (Day 5, light irradiation): 99.93% | Total impurities (%) (Day 5, light irradiation): 0.07% | Water (%) (Day 5, light irradiation): 3.1% | Maximum single impurity (%) (Day 5, relative humidity 75%): 0.021 (RRT: 1.22) % | Purity (%) (Day 5, relative humidity 75%): 99.98% | Total impurities (%) (Day 5, relative humidity 75%): 0.02% | Water (%) (Day 5, relative humidity 75%): 3.1% | Maximum single impurity (%) (Day 5, relative humidity 92.5%): 0.021 (RRT: 1.22) % | Purity (%) (Day 5, relative humidity 92.5%): 99.98% | Total impurities (%) (Day 5, relative humidity 92.5%): 0.02% | Water (%) (Day 5, relative humidity 92.5%): 3.2% | Maximum single impurity (%) (Day 10, 40° C.): 0.022 (RRT: 1.22) % | Purity (%) (Day 10, 40° C.): 99.98% | Total impurities (%) (Day 10, 40° C.): 0.02% | Water (%) (Day 10, 40° C.): 3.3% | Maximum single impurity (%) (Day 10, 60° C.): 0.020 (RRT: 1.22) % | Purity (%) (Day 10, 60° C.): 99.96% | Total impurities (%) (Day 10, 60° C.): 0.04% | Water (%) (Day 10, 60° C.): 3.3% | Maximum single impurity (%) (Day 10, light irradiation): 0.055 (RRT: 0.93) % | Purity (%) (Day 10, light irradiation): 99.91% | Total impurities (%) (Day 10, light irradiation): 0.09% | Water (%) (Day 10, light irradiation): 3.1% | Maximum single impurity (%) (Day 10, relative humidity 75%): 0.022 (RRT: 1.22) % | Purity (%) (Day 10, relative humidity 75%): 99.98% | Total impurities (%) (Day 10, relative humidity 75%): 0.02% | Water (%) (Day 10, relative humidity 75%): 3.1% | Maximum single impurity (%) [1]: 0.022 (RRT: 1.22) % | Purity (%) [1]: 99.98% | Total impurities (%) [1]: 0.02% | Water (%) [1]: 3.2% | Maximum single impurity (%) [2]: 0.022 (RRT: 1.22) % | Purity (%) [2]: 99.98% | Total impurities (%) [2]: 0.02% | Water (%) [2]: 3.2%

CCOc1cc2ncnc(Nc3ccc(F)c(Cl)c3)c2cc1NC(=O)/C=C/CN(C)C.Cc1ccc(S(=O)(=O)O)cc1.Cc1ccc(S(=O)(=O)O)cc1.O.O [crystal form β, (E)-N-(4-((3-chloro-4-fluorophenyl)amino)-7-ethoxyquinazolin-6-yl)-4-(dimethylamino)but-2-enamide (Neptinib) di-p-methylbenzene sulfonate 2 hydrate]
Maximum single impurity (%) (Day 0): 0.017 (RRT: 1.22) % | Purity (%) (Day 0): 99.97% | Total impurities (%) (Day 0): 0.03% | Water (%) (Day 0): 4.4% | Maximum single impurity (%) (Day 5, 40° C.): 0.020 (RRT: 1.22) % | Purity (%) (Day 5, 40° C.): 99.97% | Total impurities (%) (Day 5, 40° C.): 0.03% | Water (%) (Day 5, 40° C.): 4.4% | Maximum single impurity (%) (Day 5, 60° C.): 0.151 (RRT: 0.93) % | Purity (%) (Day 5, 60° C.): 99.83% | Total impurities (%) (Day 5, 60° C.): 0.17% | Water (%) (Day 5, 60° C.): 4.3% | Maximum single impurity (%) (Day 5, light irradiation): 0.032 (RRT: 1.17) % | Purity (%) (Day 5, light irradiation): 99.94% | Total impurities (%) (Day 5, light irradiation): 0.06% | Water (%) (Day 5, light irradiation): 4.4% | Maximum single impurity (%) (Day 5, relative humidity 75%): 0.019 (RRT: 1.22) % | Purity (%) (Day 5, relative humidity 75%): 99.97% | Total impurities (%) (Day 5, relative humidity 75%): 0.03% | Water (%) (Day 5, relative humidity 75%): 4.4% | Maximum single impurity (%) (Day 5, relative humidity 92.5%): 0.018 (RRT: 1.22) % | Purity (%) (Day 5, relative humidity 92.5%): 99.97% | Total impurities (%) (Day 5, relative humidity 92.5%): 0.03% | Water (%) (Day 5, relative humidity 92.5%): 4.5% | Maximum single impurity (%) (Day 10, 40° C.): 0.020 (RRT: 122) % | Purity (%) (Day 10, 40° C.): 99.98% | Total impurities (%) (Day 10, 40° C.): 0.02% | Water (%) (Day 10, 40° C.): 4.5% | Maximum single impurity (%) (Day 10, 60° C.): 0.020 (RRT: 1.22) % | Purity (%) (Day 10, 60° C.): 99.94% | Total impurities (%) (Day 10, 60° C.): 0.06% | Water (%) (Day 10, 60° C.): 4.4% | Maximum single impurity (%) (Day 10, light irradiation): 0.177 (RRT: 0.93) % | Purity (%) (Day 10, light irradiation): 99.80% | Total impurities (%) (Day 10, light irradiation): 0.20% | Water (%) (Day 10, light irradiation): 4.5% | Maximum single impurity (%) (Day 10, relative humidity 75%): 0.022 (RRT: 1.22) % | Purity (%) (Day 10, relative humidity 75%): 99.98% | Total impurities (%) (Day 10, relative humidity 75%): 0.02% | Water (%) (Day 10, relative humidity 75%): 4.4% | Maximum single impurity (%) [1]: 0.021 (RRT: 1.22) % | Purity (%) [1]: 99.98% | Total impurities (%) [1]: 0.02% | Water (%) [1]: 4.5% | Maximum single impurity (%) [2]: 0.022 (RRT: 1.22) % | Purity (%) [2]: 99.98% | Total impurities (%) [2]: 0.02% | Water (%) [2]: 4.3%
